Laboratory results from patent US6521641B1, “Male anti-fertility agents” (Allergan, Inc., priority 1998, dated 2003).

Test system: Sprague-Dawley rats
Assay: Topical administration of AGN 193109 to rats with Recovery group (Example 4)
Format: in vivo, rat
Procedure: This experiment is conducted as indicated in Example 2, except that the drug is 193109 rather than AGN 194310, and a Recovery group is monitored for a period of time post-treatment as in Example 3. Dosages of the '109 drug is the same as for the topical treatment with the '310 drug.

[1] = rats, topical, at the effective dose

Compound: Cc1ccc(C2=CCC(C)(C)c3ccc(C#Cc4ccc(C(=O)O)cc4)cc32)cc1 [AGN 193109]
- reversibility (testes histology) (male rats 12 weeks after administration): repopulation of the tubules with males gametes in various stages of development
- histological analysis of the testes [1]: absence of primary spermatocytes, spermatids and spermatozoa in the majority of animals' seminiferous tubules
- spermatogenic arrest (examination of the testes) [1]: spermatogenic arrest can be seen within thirty days after initiation of treatment
